This note sets out measurements from article PMC4774911, “Biochemical Screening of Five Protein Kinases from Plasmodium falciparum against 14,000 Cell-Active Compounds” (PLoS ONE, 2016).

pKd: −log10 of the molar value. Where “and” joins values, the source holds several entries; their conditions need not be identical. Identical values can stand only once.

Targets include RPS6KA3 (Homo sapiens, UniProt P51812); CDK2 (Homo sapiens, UniProt P24941); RPS6KA5 (Homo sapiens, UniProt O75582).
What all share (test): biochemical
Holding throughout (parameters): endogenous in cells; host or cells: K562 cell extract; species or system K562 (extract); replicate k of n = 2 (each experiment ID is one independent experiment; two experiment IDs per compound)
Holding throughout (details): read-out: KDapp

The next experiment concerns the target T1, IRAK4 (Homo sapiens, UniProt Q9NWZ3).
T1 sequence (Q9NWZ3 1-460): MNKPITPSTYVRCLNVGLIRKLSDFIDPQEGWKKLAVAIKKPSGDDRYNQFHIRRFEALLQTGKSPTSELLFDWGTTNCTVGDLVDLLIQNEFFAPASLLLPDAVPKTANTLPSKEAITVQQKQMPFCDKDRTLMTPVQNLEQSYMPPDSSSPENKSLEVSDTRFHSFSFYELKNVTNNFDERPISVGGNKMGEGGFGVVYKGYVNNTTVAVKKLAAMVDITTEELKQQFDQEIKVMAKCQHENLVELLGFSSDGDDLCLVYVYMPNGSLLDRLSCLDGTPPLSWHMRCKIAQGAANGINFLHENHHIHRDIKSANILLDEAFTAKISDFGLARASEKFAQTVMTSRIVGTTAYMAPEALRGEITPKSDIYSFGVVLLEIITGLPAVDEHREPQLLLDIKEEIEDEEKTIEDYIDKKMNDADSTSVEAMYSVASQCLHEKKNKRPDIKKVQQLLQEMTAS

For the next experiment, the target named is T2, MAP3K6 (Homo sapiens, UniProt O95382).
T2 sequence (O95382 1-1288): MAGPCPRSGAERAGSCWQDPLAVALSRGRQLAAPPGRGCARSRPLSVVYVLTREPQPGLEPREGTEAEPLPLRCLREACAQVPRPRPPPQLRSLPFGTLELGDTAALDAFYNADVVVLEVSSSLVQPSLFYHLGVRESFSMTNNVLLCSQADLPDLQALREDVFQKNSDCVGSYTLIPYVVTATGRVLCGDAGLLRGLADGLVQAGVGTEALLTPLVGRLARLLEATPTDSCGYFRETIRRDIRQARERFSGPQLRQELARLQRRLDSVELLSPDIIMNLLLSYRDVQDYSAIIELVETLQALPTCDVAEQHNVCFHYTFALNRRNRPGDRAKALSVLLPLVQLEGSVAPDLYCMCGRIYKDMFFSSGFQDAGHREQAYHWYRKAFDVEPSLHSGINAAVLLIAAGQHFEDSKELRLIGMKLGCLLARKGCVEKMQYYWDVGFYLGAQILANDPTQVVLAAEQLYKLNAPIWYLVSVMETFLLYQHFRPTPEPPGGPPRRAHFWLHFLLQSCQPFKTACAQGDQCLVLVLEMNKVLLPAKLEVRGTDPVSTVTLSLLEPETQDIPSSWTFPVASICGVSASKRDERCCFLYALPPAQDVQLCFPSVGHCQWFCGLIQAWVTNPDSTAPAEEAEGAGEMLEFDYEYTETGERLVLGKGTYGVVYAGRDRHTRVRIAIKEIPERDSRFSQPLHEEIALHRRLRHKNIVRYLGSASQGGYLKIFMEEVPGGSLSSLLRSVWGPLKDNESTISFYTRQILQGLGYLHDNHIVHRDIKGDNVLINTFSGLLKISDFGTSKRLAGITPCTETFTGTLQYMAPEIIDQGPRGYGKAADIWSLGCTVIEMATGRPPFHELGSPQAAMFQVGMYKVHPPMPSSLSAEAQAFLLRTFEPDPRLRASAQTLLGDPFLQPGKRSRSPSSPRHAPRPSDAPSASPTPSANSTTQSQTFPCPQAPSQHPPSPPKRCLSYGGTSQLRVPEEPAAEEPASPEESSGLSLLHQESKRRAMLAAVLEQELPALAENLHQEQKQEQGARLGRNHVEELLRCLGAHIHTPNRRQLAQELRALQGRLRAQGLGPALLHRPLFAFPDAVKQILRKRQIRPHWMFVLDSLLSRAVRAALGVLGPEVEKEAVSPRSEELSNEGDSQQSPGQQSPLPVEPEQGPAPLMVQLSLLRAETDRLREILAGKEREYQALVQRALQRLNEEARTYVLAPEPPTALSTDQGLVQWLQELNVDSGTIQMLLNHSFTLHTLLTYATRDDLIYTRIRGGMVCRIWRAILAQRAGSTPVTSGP

Another experiment concerns the target T3, MAPKAPK5 (Homo sapiens, UniProt Q8IW41).
T3 sequence (Q8IW41 1-473): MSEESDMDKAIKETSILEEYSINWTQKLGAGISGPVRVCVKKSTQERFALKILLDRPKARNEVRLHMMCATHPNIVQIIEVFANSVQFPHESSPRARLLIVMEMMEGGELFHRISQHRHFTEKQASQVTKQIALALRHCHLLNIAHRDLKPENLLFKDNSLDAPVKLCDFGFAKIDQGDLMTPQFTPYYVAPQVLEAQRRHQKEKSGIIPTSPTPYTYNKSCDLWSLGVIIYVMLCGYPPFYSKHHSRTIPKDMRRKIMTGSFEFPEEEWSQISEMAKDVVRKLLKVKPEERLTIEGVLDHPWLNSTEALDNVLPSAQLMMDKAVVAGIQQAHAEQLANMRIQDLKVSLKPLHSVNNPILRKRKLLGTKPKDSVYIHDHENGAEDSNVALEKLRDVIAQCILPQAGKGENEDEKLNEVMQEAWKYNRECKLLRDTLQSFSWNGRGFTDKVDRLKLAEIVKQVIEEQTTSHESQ

Sequence of RPS6KA5 (O75582 whole entry): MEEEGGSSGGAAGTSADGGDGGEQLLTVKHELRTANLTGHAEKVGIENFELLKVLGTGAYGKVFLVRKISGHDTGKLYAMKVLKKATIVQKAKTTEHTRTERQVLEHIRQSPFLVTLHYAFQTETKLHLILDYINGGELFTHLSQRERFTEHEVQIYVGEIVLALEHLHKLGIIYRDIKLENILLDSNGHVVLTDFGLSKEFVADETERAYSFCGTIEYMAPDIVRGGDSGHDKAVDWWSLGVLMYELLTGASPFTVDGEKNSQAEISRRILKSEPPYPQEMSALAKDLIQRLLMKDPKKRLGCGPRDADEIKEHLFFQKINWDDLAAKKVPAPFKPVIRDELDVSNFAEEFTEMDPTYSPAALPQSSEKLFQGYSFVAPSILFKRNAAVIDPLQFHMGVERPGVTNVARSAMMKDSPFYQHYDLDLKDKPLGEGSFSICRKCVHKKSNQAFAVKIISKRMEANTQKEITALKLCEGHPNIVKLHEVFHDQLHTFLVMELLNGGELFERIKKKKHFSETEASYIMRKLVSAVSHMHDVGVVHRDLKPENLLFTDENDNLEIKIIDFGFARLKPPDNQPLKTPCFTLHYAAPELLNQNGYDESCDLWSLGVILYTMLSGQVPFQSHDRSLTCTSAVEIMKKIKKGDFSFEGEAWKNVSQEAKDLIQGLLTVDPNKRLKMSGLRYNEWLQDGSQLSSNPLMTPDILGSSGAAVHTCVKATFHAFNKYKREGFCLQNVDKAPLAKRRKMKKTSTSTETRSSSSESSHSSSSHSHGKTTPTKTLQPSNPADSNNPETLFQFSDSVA
Sequence of RPS6KA3 (P51812 whole entry): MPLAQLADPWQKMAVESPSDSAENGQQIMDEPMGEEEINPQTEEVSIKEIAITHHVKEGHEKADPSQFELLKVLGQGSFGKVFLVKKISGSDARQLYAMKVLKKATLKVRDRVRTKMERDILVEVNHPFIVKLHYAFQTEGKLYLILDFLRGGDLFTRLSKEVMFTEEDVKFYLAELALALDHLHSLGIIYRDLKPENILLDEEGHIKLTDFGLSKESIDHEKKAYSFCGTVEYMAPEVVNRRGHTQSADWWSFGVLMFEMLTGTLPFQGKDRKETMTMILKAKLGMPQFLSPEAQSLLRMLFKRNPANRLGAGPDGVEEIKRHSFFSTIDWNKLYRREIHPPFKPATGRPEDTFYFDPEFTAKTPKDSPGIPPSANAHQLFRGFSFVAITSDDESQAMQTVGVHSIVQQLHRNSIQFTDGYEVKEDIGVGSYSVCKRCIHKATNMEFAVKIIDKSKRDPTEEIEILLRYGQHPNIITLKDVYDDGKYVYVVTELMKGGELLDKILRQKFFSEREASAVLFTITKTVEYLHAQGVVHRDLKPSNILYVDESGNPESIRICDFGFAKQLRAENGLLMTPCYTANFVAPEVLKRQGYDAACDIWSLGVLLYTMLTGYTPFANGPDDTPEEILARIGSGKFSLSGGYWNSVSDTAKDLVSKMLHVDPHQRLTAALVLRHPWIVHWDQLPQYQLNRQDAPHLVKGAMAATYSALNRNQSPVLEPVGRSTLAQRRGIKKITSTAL

Turning to `CN1CCN(c2ccc(Nc3ncc(C#N)c(Nc4ccccc4C(N)=O)n3)cc2)CC1.Cl` [TCMDC-134116], the pKd was 7.22 and 7.09 at RPS6KA3; 7.02 on IRAK4; 6.87 and 6.88 at CDK2; 6.41 and 6.23 on RPS6KA5; 6.00 and 6.06 at MAP3K6.
`CN(C)CC(O)COc1ccc(Nc2ncc([N+](=O)[O-])c(Nc3ccccc3O)n2)cc1.O=C(O)C(F)(F)F` (stereo not drawn) [TCMDC-141399]: on MAPKAPK5, the pKd was 6.54.
